According to ChEMBL document CHEMBL5608234, “Heat Shock Protein 90 Interactome-Mediated Proteolysis Targeting Chimera (HIM-PROTAC) Degrading Glutathione Peroxidase 4 to Trigger Ferroptosis” (J Med Chem, 2024):
The source made the active and inactive calls. The calls are words filed in the database; no cut-off is given here.

Legend:
4T1 = assay: HIM-PROTAC activity at GPX4/HSP90/E3 ligase in […] cells assessed as reduction in GPX4 level at 0.1 to 3 uM incubated for 24 hrs by Western blotting analysis; type: cell-based; details: dose 0.1-3 µM
B16-F10 = assay: HIM-PROTAC activity at GPX4/HSP90/E3 ligase in mouse B16-F10 cells assessed as reduction in GPX4 level at 0.1 to 3 uM incubated for 24 hrs by Western blotting analysis; type: cell-based; details: dose 0.1-3 µM
HT-1080 [1] = assay: HIM-PROTAC activity at GPX4/HSP90/E3 ligase in human HT-1080 cells assessed as reduction in GPX4 level at 1 uM incubated for 24 hrs by Western blotting analysis; type: cell-based; set-up: scale not given: the % may be the effect or the level left
HT-1080 [2] = assay: Upregulation of GPX4 protein level in human HT-1080 cells at 1 uM incubated for 4 hrs by Western blotting analysis; type: functional, cell-based
[3] = Drug uptake in human HT-1080 cells at 5 uM incubated for 6 hrs by LC-MS analysis; type: ADME, cell-based; details: ht-1080, 6 h
[4] = Drug uptake in human HT-1080 cells at 5 uM incubated for 18 hrs by LC-MS analysis; type: ADME, cell-based; details: ht-1080, 18 h
HT-1080 [5] = assay: HIM-PROTAC activity at GPX4/HSP90/E3 ligase in human HT-1080 cells assessed as GPX4 degradation at 1 uM measured 24 hrs post compound washout by Western blotting analysis; type: cell-based
HT-1080 [6] = assay: HIM-PROTAC activity at GPX4/HSP90/E3 ligase in human HT-1080 cells assessed as reduction in GPX4 level at 1 uM preincubated with MG132 for 2 hrs followed by compound addition and measured after 24 hrs by Western blotting analysis; type: cell-based
HT-1080 [7] = assay: Cytotoxicity against human HT-1080 cells incubated for 48 hrs in presence of Fer-1 by CCK-8 assay; type: functional, cell-based; details: HT-1080, 48 h
HT-1080 [8] = assay: Induction of ferroptosis in human HT-1080 cells assessed as fold increase in cytotoxic IC50 incubated for 48 hrs in presence of Fer-1 by CCK-8 assay; type: functional
HT-1080 [9] = assay: Induction of ferroptosis in human HT-1080 cells assessed as increase in Fe2+ level at 1 uM incubated for 24 hrs by FerroOrange staining based confocal laser scanning microscopic analysis; type: functional, cell-based
HT-1080 [10] = assay: Induction of ferroptosis in human HT-1080 cells assessed as reduction in mitochondrial crests at 1 uM incubated for 24 hrs by TEM analysis; type: functional, cell-based
HT-1080 [11] = assay: Induction of ferroptosis in human HT-1080 cells assessed as broken mitochondrial outer membrane at 1 uM incubated for 24 hrs by TEM analysis; type: functional, cell-based
HT-1080 [12] = assay: Induction of ferroptosis in human HT-1080 cells assessed as appearance of autophagosome-like structures at 1 uM incubated for 24 hrs by TEM analysis; type: functional, cell-based
[13] = Toxicity in BALB/c mouse xenografted with human HT-1080 cells assessed as change in spleen morphology at 25 to 50 mg/kg, ip administered once daily by H and E staining based assay; type: organism-based; details: in vivo, dose 25-50 mg/kg
[14] = Toxicity in BALB/c mouse xenografted with human HT-1080 cells assessed as change in kidney morphology at 25 to 50 mg/kg, ip administered once daily by H and E staining based assay; type: organism-based; details: in vivo, dose 25-50 mg/kg
Mus musculus = assay: Effect on HSP90 level in BALB/c mouse xenografted with human HT-1080 cells at 25 to 50 mg/kg, ip administered once daily by immunohistochemistry analysis; type: functional, organism-based; details: dose 25-50 mg/kg
[15] = Toxicity in BALB/c mouse xenografted with human HT-1080 cells assessed as animal death at 50 mg/kg, ip administered once daily measured after 10 days; type: organism-based; details: in vivo, 240 h, time 10 day
HT-1080 [16] = assay: HIM-PROTAC activity at GPX4/HSP90/E3 ligase in human HT-1080 cells assessed as reduction in GPX4 level incubated for 24 hrs by Western blotting analysis; type: cell-based
HT-1080 [17] = assay: HIM-PROTAC activity at GPX4/HSP90/E3 ligase in human HT-1080 cells assessed as downregulation of GPX4 mRNA level at 0.1 to 1 uM incubated for 24 hrs by qRT-PCR analysis; type: cell-based; details: dose 0.1-1 µM
HT-1080 [18] = assay: HIM-PROTAC activity at GPX4/HSP90/E3 ligase in human HT-1080 cells assessed as GPX4 degradation at 1 uM measured 12 hrs post compound washout by Western blotting analysis; type: cell-based
HT-1080 [19] = assay: HIM-PROTAC activity at GPX4/HSP90/E3 ligase in HSP90-knockdown human HT-1080 cells assessed as GPX4 degradation at 1 uM preincubated with KW-2478 for 3 hrs followed by compound addition and measured after 24 hrs by Western blotting analysis; type: cell-based
HT-1080 [20] = assay: HIM-PROTAC activity at GPX4/HSP90/E3 ligase in HSP90-knockdown human HT-1080 cells assessed as GPX4 degradation at 1 uM preincubated with KUNB-31 for 3 hrs followed by compound addition and measured after 24 hrs by Western blotting analysis; type: cell-based
HT-1080 [21] = assay: HIM-PROTAC activity at GPX4/HSP90/E3 ligase in HSP90-knockdown human HT-1080 cells assessed as GPX4 degradation at 1 uM preincubated with KW-2478 and KUNB-31 for 3 hrs followed by compound addition and measured after 24 hrs by Western blotting analysis; type: cell-based
HT-1080 [22] = assay: HIM-PROTAC activity at GPX4/HSP90/E3 ligase in human HT-1080 cells assessed as GPX4 degradation at 0.3 to 1 uM preincubated with MLN4924 for 2 hrs followed by compound addition and measured after 24 hrs by Western blotting analysis; type: cell-based; details: dose 0.3-1 µM
HT-1080 [23] = assay: HIM-PROTAC activity at GPX4/HSP90/E3 ligase in CUL5-knockdown human HT-1080 cells assessed as GPX4 degradation at 0.3 to 1 uM incubated for 24 hrs by Western blotting analysis; type: cell-based; details: dose 0.3-1 µM
HT-1080 [24] = assay: HIM-PROTAC activity at GPX4/HSP90/E3 ligase in CUL1-knockdown human HT-1080 cells assessed as GPX4 degradation at 0.3 to 1 uM incubated for 24 hrs by Western blotting analysis; type: cell-based; details: dose 0.3-1 µM
HT-1080 [25] = assay: HIM-PROTAC activity at GPX4/HSP90/E3 ligase in CUL2-knockdown human HT-1080 cells assessed as GPX4 degradation at 0.3 to 1 uM incubated for 24 hrs by Western blotting analysis; type: cell-based; details: dose 0.3-1 µM
HT-1080 [26] = assay: HIM-PROTAC activity at GPX4/HSP90/E3 ligase in CUL3-knockdown human HT-1080 cells assessed as GPX4 degradation at 0.3 to 1 uM incubated for 24 hrs by Western blotting analysis; type: cell-based; details: dose 0.3-1 µM
HT-1080 [27] = assay: HIM-PROTAC activity at GPX4/HSP90/E3 ligase in LZTR1 knockdown human HT-1080 cells assessed as GPX4 degradation at 0.3 to 1 uM incubated for 24 hrs by Western blotting analysis; type: cell-based; details: dose 0.3-1 µM
HT-1080 [28] = assay: HIM-PROTAC activity at GPX4/HSP90/E3 ligase in CHIP knockdown human HT-1080 cells assessed as GPX4 degradation at 1 uM incubated for 24 hrs by Western blotting analysis; type: cell-based

Compound	Activity (4T1)	Activity (B16-F10)	Activity (HT-1080 [1]) [%]	Activity (HT-1080 [2])	Activity (HT-1080 [6])	IC50 (HT-1080 [7]) [µM]	fold change (FC) (HT-1080 [8])	Activity (HT-1080 [9])	Activity (HT-1080 [10])	Activity (HT-1080 [11])	Activity (HT-1080 [12])	Activity [13]	Activity [14]	Activity (Mus musculus)	Activity [15]	further results
COc1c(C)cnc(Cn2cnc3c(NCCOCCOCCOCCn4cc(COc5ccc(N(C(=O)CCl)C(C(=O)NCCc6ccccc6)c6cccs6)cc5Cl)nn4)nc(N)nc32)c1C (stereo unspecified)	Active	Active	100	Active	inactive	4.4	2	Active	Active	Active	Active	Non-Toxic	Non-Toxic	inactive	Non-Toxic	Drug uptake [3]: Active; Drug uptake [4]: Not Active; Activity (HT-1080 [5]): Active
COc1c(C)cnc(Cn2cnc3c(NCCC4CCN(C(=O)Cn5cc(COc6ccc(N(C(=O)CCl)C(C(=O)NCCc7ccccc7)c7cccs7)cc6Cl)nn5)CC4)nc(N)nc32)c1C (stereo unspecified)	Active	Active	100	Active	inactive	35.5	45	Active	Active	Active	Active	Non-Toxic	Non-Toxic	inactive	Non-Toxic	Activity (HT-1080 [16]): Dose-Dependent Effect; Activity (HT-1080 [17]): inactive; Activity (HT-1080 [18]): Active; Activity (HT-1080 [19]): inactive; Activity (HT-1080 [20]): inactive; Activity (HT-1080 [21]): inactive; Activity (HT-1080 [22]): inactive; Activity (HT-1080 [23]): inactive; Activity (HT-1080 [24]): Active; Activity (HT-1080 [25]): Active; Activity (HT-1080 [26]): Active; Activity (HT-1080 [27]): Active; Activity (HT-1080 [28]): inactive
